Results published in US12728161B2 (priority 2019, dated 2026).
“Also recorded” adds a separate entry of the source.

Columns and labels:
[1] = test system: HEK293T cells expressing NiV F and G; type: cell-based
[2] = test system: pseudotyped NiV/VSV virus (pNiV)
NiV = conditions: cited from earlier work
norovirus = experiment: Plaque assay for norovirus infection in RAW 264.7 cells; type: cell-based; conditions: non-enveloped virus
Description: RAW 264.7 (ATCC) cells were infected with serial dilutions of norovirus for 1 h. 3% wt/vol Seaplaque agarose in 2×MEM media was placed as a first overlay. Then, cells were incubated for 48 h when plaques were visible and counted.

HSV-1 KOS = experiment: Plaque assay for HSV-1 infections; type: cell-based; conditions: virions treated with XM-01 before infection, various concentrations
Description: At 3 h post-inoculation, the medium was removed. At 18 to 24 h post-infection, the culture medium was removed, and cells were fixed with an ice-cold methanol-acetone solution (2:1 ratio) for 20 min at […] and air-dried. Virus titers were determined by immunoperoxidase staining with anti-HSV polyclonal antibody HR50 (Fitzgerald Industries, Concord, MA) (Roller et al., “Structure-Function Analysis of Herpes Simplex Virus Glycoprotein B with Fusion-from-without Activity,” Virology 382:207-216 (2008), which is hereby incorporated by reference in its entirety).

[3] = test system: A/California/04/2009 (H1N1); type: cell-based, influenza virus
[4] = test system: bovine rotavirus strain NCDV; experiment: Rotavirus infection assay in MA104 cells; type: cell-based; conditions: non-enveloped virus
Description: 18β-glycyrrhetinic acid (GRA) (Sigma-Aldrich) stock solutions were prepared to a concentration of 100 mg/mL in DMSO and aliquots were stored at −80° C. The stock solutions were diluted to working concentrations in DMEM without FBS. For the control compounds, MA104 (ATCC) cells were treated for 6 h with 25 μg/mL GRA. The viability was measured with the Promega CellTiterGlo Assay according to the manufacturer's protocol, with digitonin as the control for 100% cytotoxicity. Data shown are representative of two experiments, with each concentration tested in triplicate in each experiment. Error bars indicate SEM. […] Mock-infected wells received 50 μl of 0% M199 vehicle media. 50 μl of fresh 2× control and experimental compounds were added and at 18 h post-infection, the cells were fixed for 10 min with 80% acetone (Hardy et al., “18 Beta-glycyrrhetinic Acid Inhibits Rotavirus Replication in Culture,” Virol. J. 9:96 (2012), which is hereby incorporated by reference in its entirety).

[5] = test system: SARS-CoV-2 (isolate USA-WA1/2020); type: cell-based
[6] = test system: NiV F and G glycoproteins; type: cell-based; conditions: XM-01 treatment
pNiV viral membranes = test system: pNiV viral membranes; design: species or system NiV
[7] = target: NiV F and G on pNiV virions (Nipah virus, UniProt Q9IH62+Q9IH63)
NiV F protein = NiV F protein (Nipah virus, UniProt Q9IH63)
NiV G glycoprotein = NiV G glycoprotein (Nipah virus, UniProt Q9IH62)
[8] = test system: Human respiratory syncytial virus (RSV A2 strain); type: cell-based
[9] = test system: Human Cytomegalovirus (HCMV); type: cell-based
[10] = test system: vesicular stomatitis virus (VSV); type: cell-based

NiV F protein, sequence (Q9IH63 110-546 limits assumed): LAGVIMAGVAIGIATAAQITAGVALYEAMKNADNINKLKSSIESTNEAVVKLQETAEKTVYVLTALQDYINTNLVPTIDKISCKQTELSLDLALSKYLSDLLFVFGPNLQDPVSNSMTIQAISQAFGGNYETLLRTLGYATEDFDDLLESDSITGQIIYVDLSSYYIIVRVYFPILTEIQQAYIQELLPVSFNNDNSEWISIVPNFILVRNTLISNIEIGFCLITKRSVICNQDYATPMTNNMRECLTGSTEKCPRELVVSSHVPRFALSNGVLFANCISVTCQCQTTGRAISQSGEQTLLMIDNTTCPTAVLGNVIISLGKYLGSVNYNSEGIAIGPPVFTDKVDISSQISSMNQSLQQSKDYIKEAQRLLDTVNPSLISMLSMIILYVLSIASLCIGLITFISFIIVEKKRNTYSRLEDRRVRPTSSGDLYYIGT
NiV F protein, sequence (Q9IH63 27-109 limits assumed): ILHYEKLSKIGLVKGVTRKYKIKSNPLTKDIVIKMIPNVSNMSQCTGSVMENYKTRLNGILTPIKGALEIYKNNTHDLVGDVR
NiV G glycoprotein, sequence (Q9IH62 whole entry, looked up): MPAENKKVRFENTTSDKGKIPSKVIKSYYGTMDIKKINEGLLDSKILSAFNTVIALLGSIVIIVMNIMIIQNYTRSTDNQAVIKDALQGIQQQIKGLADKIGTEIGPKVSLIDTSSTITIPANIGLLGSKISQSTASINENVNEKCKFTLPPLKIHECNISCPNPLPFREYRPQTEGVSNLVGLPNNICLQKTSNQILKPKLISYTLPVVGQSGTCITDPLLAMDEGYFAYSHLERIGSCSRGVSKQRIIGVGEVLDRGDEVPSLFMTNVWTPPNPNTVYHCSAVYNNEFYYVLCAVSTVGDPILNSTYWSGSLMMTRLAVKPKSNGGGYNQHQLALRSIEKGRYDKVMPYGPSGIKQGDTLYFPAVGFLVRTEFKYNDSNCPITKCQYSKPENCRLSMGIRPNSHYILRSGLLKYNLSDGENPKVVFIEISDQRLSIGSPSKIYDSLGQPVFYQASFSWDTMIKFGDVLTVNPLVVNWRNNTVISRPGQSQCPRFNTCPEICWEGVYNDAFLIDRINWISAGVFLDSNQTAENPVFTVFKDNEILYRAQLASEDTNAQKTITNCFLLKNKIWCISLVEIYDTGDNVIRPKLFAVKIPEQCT

Compound: C=CCN1C(=O)/C(=C/c2ccc(-c3ccccc3)o2)SC1=S [LJ001, reference compound]
- cell-cell fusion (syncytia) [1]: affect cell-cell fusion
- antiviral activity in the absence of light [2]: severely reduced in the absence of light

Compound: [Na+].[SH-] [NaHS]
- antiviral effects against NiV (NiV): known antiviral effects against NiV, although at high (millimolar) concentrations

Compound: COC(=O)C(CSSC(=O)c1ccccc1)NC(=O)c1ccccc1 (stereo not drawn) [XM-01]
- inhibition of norovirus entry (norovirus): not inhibited
- cell-cell membrane fusion (syncytia) [1]: significantly reduced levels of cell-cell membrane fusion
- inhibition of HSV-1 infection (HSV-1 KOS): inhibited by XM-01 in a concentration-dependent fashion
- CC50 (Vero cells): ~1000 µM
- cytotoxicity (Vero cells): little to no cytotoxicity
- cytotoxicity levels (Vero cells): low levels of cytotoxicity
- EC50 [3]: high nanomolar to low micromolar range
- inhibition of influenza A/California/04/2009 infection [3]: inhibited by XM-01 in a concentration-dependent fashion; also recorded: significantly inhibited
- neutralization of influenza [3]: complete neutralization
- inhibition of rotavirus entry [4]: not inhibited
- inactivation of SARS-CoV-2 [5]: complete inactivation
- inhibition of plaque formation of SARS-CoV2 [5]: effective to inhibit plaque formation
- EC50 [2]: ~1 µM
- antiviral activity in the absence of light [2]: did not need light to inhibit pNiV infection
- difference between the inhibitory and cytotoxic concentrations [2]: ~ 3 log
- infectivity of treated virions [2]: highly inhibited
- inhibition of infection post-entry (time of XM-01 addition) [2]: completely incapable of inhibiting the infection
- viral infection after pre-treatment of cells [2]: did not significantly reduce viral infection
- cell surface expression of F and G glycoproteins [6]: not be significantly affected
- viral membrane appearance by electron microscopy (pNiV viral membranes): compromised membranes
- antibody binding to F or G (conformation) [7]: no significant changes in antibody binding to either glycoprotein
- F-triggering (NiV F protein): not decreased
- ephrinB2/G binding (NiV G glycoprotein): did not interfere with the receptor-binding ability of the G glycoprotein
- inhibition of RSV infection [8]: inhibited by XM-01 in a concentration-dependent fashion
- inhibition of HCMV infection [9]: inhibited by XM-01 in a concentration-dependent fashion
- inhibition of VSV infection [10]: inhibited by XM-01 in a concentration-dependent fashion

Compound: CC(=O)NC(CSSC(=O)c1ccccc1)C(=O)NCc1ccccc1 (stereo not drawn) [XM-02]
- cytotoxicity levels (Vero cells): low levels of cytotoxicity
- infectivity of pNiV in Vero cells [2]: best inhibited pNiV infections
- inhibitory properties against pNiV [2]: inhibitory properties

Compound: COC(=O)C(CSSC(C)=O)NC(=O)c1ccccc1 (stereo not drawn) [XM-03]
- cytotoxicity levels (Vero cells): low levels of cytotoxicity
- infectivity of pNiV in Vero cells [2]: best inhibited pNiV infections
- inhibitory properties against pNiV [2]: inhibitory properties

Compound: CCCCNC(=O)C(CCSSC(=O)c1ccccc1)NC(=O)c1ccccc1 (stereo not drawn) [XM-06]
- infectivity of pNiV in Vero cells [2]: best inhibited pNiV infections

Compound: COC(=O)C(CSC(=O)c1ccccc1)NC(=O)c1ccccc1 (stereo not drawn) [XM-10]
- cytotoxicity levels (Vero cells): low levels of cytotoxicity
- inhibitory properties against pNiV [2]: inhibitory properties

Compound: COC(=O)C(CSC(C)=O)NC(=O)c1ccccc1 (stereo not drawn) [XM-11]
- cytotoxicity levels (Vero cells): low levels of cytotoxicity
- inhibitory properties against pNiV [2]: inhibitory properties

Compound: O=C(SSC(=O)c1ccccc1)c1ccccc1 [XM-12]
- infectivity of pNiV in Vero cells [2]: best inhibited pNiV infections

Compound: C=O [formalin, reference compound]
- inactivation of SARS-CoV-2 [5]: complete inactivation
